Common to all, as to assay: relative viability (nuclei count vs DMSO), 5 days (fraction); higher = more cells survive
Compound in the test “Olaparib + Dasatinib”: O=C(c1cc(Cc2n[nH]c(=O)c3ccccc23)ccc1F)N1CCN(C(=O)C2CC2)CC1 [Olaparib] + Cc1nc(Nc2ncc(C(=O)Nc3c(C)cccc3Cl)s2)cc(N2CCN(CCO)CC2)n1 [Dasatinib] (partner 0.075 µM)
A digest of the protocol: (§1)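 Cells from lung cancer lines were seeded into 1536-well plates and, one day later, dosed by pin tool. Treatments were either a single drug or a fixed dose of an anchor drug with five library-drug doses (not always all listed) in √10 steps. After 5 days, nuclei were stained in a one-step fixation (final 0.05% Triton X-100, 1% formaldehyde, 1 ug/ml Hoechst) and counted on 4× images, and relative viability is the treated-to-vehicle nuclei ratio, as the median of duplicate plates.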

Compound in the test “Olaparib + Trametinib”: O=C(c1cc(Cc2n[nH]c(=O)c3ccccc23)ccc1F)N1CCN(C(=O)C2CC2)CC1 [Olaparib] + CC(=O)Nc1cccc(-n2c(=O)n(C3CC3)c(=O)c3c(Nc4ccc(I)cc4F)n(C)c(=O)c(C)c32)c1 [Trametinib] (partner 0.02 µM)
A digest of the protocol:
as §1

Compound in the test “Crizotinib + Phenformin”: C[C@@H](Oc1cc(-c2cnn(C3CCNCC3)c2)cnc1N)c1c(Cl)ccc(F)c1Cl [Crizotinib] + N=C(N)NC(=N)NCCc1ccccc1 [Phenformin] (partner 250 µM)
The gist of the method:
as §1

Compound in the test “Olaparib + Alpelisib”: O=C(c1cc(Cc2n[nH]c(=O)c3ccccc23)ccc1F)N1CCN(C(=O)C2CC2)CC1 [Olaparib] + Cc1nc(NC(=O)N2CCC[C@H]2C(N)=O)sc1-c1ccnc(C(C)(C)C(F)(F)F)c1 [Alpelisib] (partner 2 µM)
The gist of the method:
as §1

Compound in the test “Carfilzomib + Alpelisib”: CC(C)C[C@H](NC(=O)[C@H](CCc1ccccc1)NC(=O)CN1CCOCC1)C(=O)N[C@@H](Cc1ccccc1)C(=O)N[C@@H](CC(C)C)C(=O)[C@@]1(C)CO1 [Carfilzomib] + Cc1nc(NC(=O)N2CCC[C@H]2C(N)=O)sc1-c1ccnc(C(C)(C)C(F)(F)F)c1 [Alpelisib] (partner 2 µM)
A digest of the protocol: as §1

Take NCI-H1793: the relative viability in the test with Olaparib + Dasatinib (first compound 0.08 µM) was 0.377; with Olaparib + Dasatinib (first compound 0.253 µM) it was 0.38; with Olaparib + Dasatinib (first compound 2.53 µM), 0.353; with Olaparib + Dasatinib (first compound 8 µM) it was 0.303; with Olaparib + Trametinib (first compound 0.08 µM), 0.522; in the test with Olaparib + Trametinib (first compound 0.253 µM), 0.427. Further, the relative viability is 0.395 in the test with Olaparib + Trametinib (first compound 2.53 µM); 0.476 in the test with Olaparib + Trametinib (first compound 8 µM); 0.408 in the test with Crizotinib + Phenformin (first compound 0.03162 µM); 0.343 in the test with Crizotinib + Phenformin (first compound 0.1 µM); 0.388 with Crizotinib + Phenformin (first compound 1 µM); 0.683 in the test with Olaparib + Alpelisib (first compound 0.08 µM). The relative viability with Olaparib + Alpelisib (first compound 0.253 µM) was determined as 0.664; with Olaparib + Alpelisib (first compound 2.53 µM) it was 0.768; in the test with Olaparib + Alpelisib (first compound 8 µM), 0.601; with Carfilzomib + Alpelisib (first compound 0.003162 µM) it was 0.767; in the test with Carfilzomib + Alpelisib (first compound 0.01 µM), 0.804; with Carfilzomib + Alpelisib (first compound 0.03162 µM), 0.68. Besides, the relative viability with Carfilzomib + Alpelisib (first compound 0.1 µM) came out at 0.356.

For the origin of these results see the supplement of paper PMC10307832.
